Test results published in patent US9540647B2, “Methods and compositions for the treatment of cancer” (University of South Alabama, priority 2010, dated 2017).
“Also recorded” adds a separate entry of the source.

Columns and labels:
c-jun and c-fos mRNA = c-jun and c-fos mRNA expression in A2780-CP70 cells (semi-quantitative PCR); type: cell-based, human; details: 70 μM cyclopamine
[1] = test system: OPN, MMP9, and Cathepsin K (CTSK); experiment: OPN, MMP9 and Cathepsin K expression in osteoclasts (qRT-PCR); type: cell-based, murine; details: osteoclasts with breast cancer conditioned medium; relative to DM
Method: Quantitative RT-PCR (qRT-PCR)—cDNA was generated using High Capacity Reverse Transcriptase Kit (Applied Biosystems, Foster City, Calif.). Real time PCR was performed in two cycles using a BioRad iQ5 Real-Time Detection system (Bio-Rad, Hercules, Calif.): the first cycle of 95° C. for 10 mins followed by 40 repeats of the second cycle comprising 95° C. for 15 sec followed by 60° C. for 1 min. All reactions were done in triplicate. Transcript levels were normalized to GAPDH levels (dCT) which was used to calculate changes in gene expression (2-ddCT). […] Following the experimental regime as described herein (for Osteoclast differentiation/activity) RNA was isolated using Trizol (Invitrogen) and assessed as described herein. The details of the primers used were as follows: OPN (Spp1; Mm00436767_m1), Matrixmetalloprotease 9 (MMP9; Mm00600163_m1), Cathepsin K (Ctsk; Mm00484036_m1), SHH (Hs00179843_m1), GLI1 (Hs01110766_m1), OPN (Hs00959010_m1), hGAPDH (Hs99999905_m1) and GAPDH (Mm99999915_g1).

ERCC1, XPD, XRCC1 = experiment: ERCC1, XPD and XRCC1 mRNA levels in A2780-CP70 cells (semi-quantitative PCR); type: cell-based, human; details: single agent at levels associated with 50% cell killing; 6-72 hr
OPN [2] = experiment: OPN expression in osteoblastic cells treated with cyclopamine (qRT-PCR, immunoblot); type: cell-based, human
Method: Quantitative RT-PCR (qRT-PCR)—cDNA was generated using High Capacity Reverse Transcriptase Kit (Applied Biosystems, Foster City, Calif.). Real time PCR was performed using a BioRad iQ5 Real-Time Detection system (Bio-Rad, Hercules, Calif.). All reactions were done in triplicate. OPN transcript levels were normalized to GAPDH levels (dCT) which was used to calculate changes in OPN expression (2-ddCT). […] The primers used included Sppl (OPN) (Mm 00436767_m1); Bglap (osteocalcin) (Mm 01741771_g1); IBSP (Mm 00492555_m1); PTHrP (Mm 00433057_m1); RANKL (Mm 00441906_m1); GAPDH (Mm 99999915_g1).

OPN promoter = OPN promoter reporter activity in hFOB cells; type: cell-based, human
Method: Empty pGL3 vector was used as control. […] Readings were normalized to total protein content. Each parameter was studied in triplicate and the experiment repeated at least 3 times. The data are represented as percent luciferase activity, which was derived as a percent of the relative light units in treated groups compared with the untreated groups.
Empty pGL3 vector was used as control. Different concentrations of SHH ligand were added to the well the next day. Cells were lysed in Reporter Lysis buffer (Promega) 24 hrs post addition of SHH and both β-galactosidase assay and luciferase assays were done following manufacturer's protocol. Readings were normalized to β-galactosidase. Each parameter was studied in triplicate and the experiment repeated at least 3 times.

OPN [3] = experiment: OPN expression in RAW264.7 pre-osteoclasts in response to SHH; type: cell-based, murine; details: RAW264.7 cells
Method: Western Blotting Analysis—Whole cell lysates were collected in NP-40 buffer (150 mM NaCl, 50 mM Tris, 1% NP-40). Total protein (30 μg) was resolved by SDS-PAGE gel and transferred to PVDF membranes. Membranes were immunoblotted overnight at 4° C. with antibodies to either SHH (Santacruz, Calif., USA) or IHH (Santacruz). Equal loading was confirmed with anti-β-tubulin (Cell Signaling, Danvers, Mass.). To assess OPN expression upon SHH treatment, […] were grown in 6-well plates in the presence of SHH. After 24 hours the cells were lysed in NP-40 buffer and 30 μg of each experimental group assessed by immunoblotting. To assess for the expression of OPN, MMP9 and CTSK, at the end of Day 6 of differentiation, all the different experimental groups were kept in serum free medium for 24 hrs and both, the conditioned media and whole cell lysates were collected and immunoblotted using antibodies to either anti-mouse OPN (Millipore, Bedford, Mass.), or CTSK (SantaCruz Biotech). Equal loading was confirmed with anti-β-actin (Sigma) antibody. Secreted MMP9 (Santa Cruz Biotech) was assessed by loading equal quantity of protein from the serum-free conditioned medium. Corresponding HRP conjugated secondary antibodies were used for detection; blots were developed with SuperSignal enhanced chemiluminescence substrate (Pierce, Rockford, Ill.) and imaged using a Fuji LAS3000 imager. Detection and quantification of proteins was done using Fuji LAS 3000 apparatus and Multigauge V3.1 software (Fujifilm, Valhalla, N.Y.). Band intensities were measured in arbitrary Units (AU). […]
Luciferase Assay—Cells were co-transfected with the OPN promoter construct, pGL3-OPNB and pSV-β-galactosidase (Promega) (Das, S., et al. (2009) J Biol Chem 284, 22888-22897). […] Readings were normalized to β-galactosidase. […]
Quantitative RT-PCR (qRT-PCR)—cDNA was generated using High Capacity Reverse Transcriptase Kit (Applied Biosystems, Foster City, Calif.). […] Following the experimental regime as described herein (for Osteoclast differentiation/activity) RNA was isolated using Trizol (Invitrogen) and assessed as described herein. […]

| Molecule | c-fos mRNA levels, peak over 0 hr (c-jun and c-fos mRNA) [fold] | c-jun mRNA levels, increase (c-jun and c-fos mRNA; 6 hr) [fold] | c-jun mRNA levels, increase over 0 hr (c-jun and c-fos mRNA; 24 hr (peak)) [fold] | levels of CTSK [1] | levels of MMP9 [1] | levels of OPN [1] | mRNAs for ERCC1, XPD, or XRCC1 (ERCC1, XPD, XRCC1) | OPN mRNA levels (OPN [2]; hFOB cells, cyclopamine 5 μM, 10 μM, 20 μM) | expression of total OPN (OPN [2]; osteoblastic cells in presence of cyclopamine) | secreted OPN (OPN [2]; osteoblastic cells, cyclopamine 5, 10 and 20 μM, dose and time dependent) | expression of OPN transcript (OPN [2]; osteoblastic cells, cyclopamine (20 μg/ml), real time PCR) | OPN promoter activity (OPN promoter) | expression of OPN (immunoblot) (OPN [3]; 24 hours post SHH treatment) | OPN promoter activity (OPN [3]; 24 hours post-SHH treatment) | levels of OPN mRNA (OPN [3]; recombinant SHH vs untreated) |
| --- | --- | --- | --- | --- | --- | --- | --- | --- | --- | --- | --- | --- | --- | --- | --- |
| CC1=C2C[C@H]3[C@@H](CC=C4C[C@@H](O)CC[C@@]43C)[C@@H]2CC[C@]12O[C@@H]1C[C@H](C)CN[C@H]1[C@H]2C [cyclopamine] | 27 | 3 | 13 | significantly decreased | significantly decreased | significantly decreased | no increase | decreases OPN mRNA levels | decreased | decreased | decreased the expression of OPN transcript | – | – | – | – |
| SHH: recombinant Sonic Hedgehog ligand (R & D Systems) | – | – | – | – | – | – | – | – | – | – | – | activates the OPN promoter; also recorded: upregulation in OPN promoter activity | stimulates the expression of OPN | significantly (p<0.05) higher | significantly greater levels of OPN mRNA |
